# From publication PMC6095690, “Coalescing beneficial host and deleterious antiparasitic actions as an antischistosomal strategy” (eLife, 2018)
# Assays:
# [1] = system: forskolin evoked cAMP production in HEK293 cells lacking Sm.5HTRL; assay: counter-screen of antagonist hits: forskolin evoked cAMP production in parental reporter line; format: cell-based
# Sm.5HTRL [2] = target: T1, Sm.5HTRL (Schistosoma mansoni, UniProt A0A173FEI8)
# human 5-HT2B receptor = system: human 5-HT2B receptor; set-up: method as in Chan et al., 2017; details: contracts host mesenteric vessels; ref Chan et al., 2017; cited from earlier work
# [3] = system: S. mansoni (mature infection in Swiss Webster mice); assay: hepatic shift assay in infected mice; details: intraperitoneal, sacrificed three hours later; dose not given
# Sj.5HTR = Sj.5HTR (Schistosoma japonicum, UniProt A0A346LTY2); assay: cell-based; details: HEK293
# Sequence of Sj.5HTR (A0A346LTY2 entry or part of it): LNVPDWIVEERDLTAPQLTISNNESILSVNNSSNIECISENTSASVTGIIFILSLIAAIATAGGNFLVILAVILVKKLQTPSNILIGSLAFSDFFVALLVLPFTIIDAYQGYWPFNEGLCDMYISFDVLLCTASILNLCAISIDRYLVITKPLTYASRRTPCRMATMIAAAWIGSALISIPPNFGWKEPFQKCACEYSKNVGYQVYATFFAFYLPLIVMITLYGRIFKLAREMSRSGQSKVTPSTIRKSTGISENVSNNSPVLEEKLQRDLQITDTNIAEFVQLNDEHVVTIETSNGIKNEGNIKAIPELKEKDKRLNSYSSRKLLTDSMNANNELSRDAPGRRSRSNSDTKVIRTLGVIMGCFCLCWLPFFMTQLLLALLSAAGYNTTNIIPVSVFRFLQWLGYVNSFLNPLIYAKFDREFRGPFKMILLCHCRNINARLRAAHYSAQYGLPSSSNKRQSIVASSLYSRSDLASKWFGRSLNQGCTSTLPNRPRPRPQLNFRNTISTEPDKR
# [4] = system: adult S. mansoni parasites; assay: adult worm movement assay ex vivo; set-up: species or system Schistosoma mansoni; details: Schistosoma mansoni; ex vivo, ± 95% confidence interval; read-out: EC50 for stimulation of adult schistosome movement
# [5] = system: S. mansoni (mature infection in Swiss Webster mice); assay: curative efficacy against mature infection in mice (survival, worm burden, egg counts, organ weights)
# liver signaling pathways = assay: Ingenuity Pathway Analysis of transcripts differentially expressed in drug treated livers relative to control infections; format: in vivo, mouse
# Sm.5HTRL [6] = target: T1, Sm.5HTRL; assay: cell-based; details: HEK293
# [7] = system: immature S. mansoni (infection in mice); assay: curative efficacy against immature infection in mice (dosing weeks 3-4 post infection); details: dosing 3–4 weeks post infection, worm burden at 7 weeks; ERG 60 mg/kg, PZQ 50 mg/kg
# immature S. mansoni = assay: movement of immature worms harvested 4 weeks post infection, ex vivo; set-up: species or system Schistosoma mansoni; details: male worms 4 weeks post infection
# Text: Figure 6. […] Figure 6—figure supplement 1. […] Scale = 50 µm. [drawing 7]
# [8] = system: adult S. mansoni male and female pairs; assay: egg laying assay of worm pairs cultured ex vivo; details: 1 µM
# [9] = system: liver of S. mansoni infected mice; assay: liver histology and immunohistochemistry of infected drug treated mice; details: ergotamine 60 mg/kg
# Sh.5HTR = Sh.5HTR (Schistosoma haematobium, UniProt A0A922S615); format: cell-based; details: HEK293; maximal cAMP response relative to 5-HT
# T1 sequence (A0A173FEI8 1-547): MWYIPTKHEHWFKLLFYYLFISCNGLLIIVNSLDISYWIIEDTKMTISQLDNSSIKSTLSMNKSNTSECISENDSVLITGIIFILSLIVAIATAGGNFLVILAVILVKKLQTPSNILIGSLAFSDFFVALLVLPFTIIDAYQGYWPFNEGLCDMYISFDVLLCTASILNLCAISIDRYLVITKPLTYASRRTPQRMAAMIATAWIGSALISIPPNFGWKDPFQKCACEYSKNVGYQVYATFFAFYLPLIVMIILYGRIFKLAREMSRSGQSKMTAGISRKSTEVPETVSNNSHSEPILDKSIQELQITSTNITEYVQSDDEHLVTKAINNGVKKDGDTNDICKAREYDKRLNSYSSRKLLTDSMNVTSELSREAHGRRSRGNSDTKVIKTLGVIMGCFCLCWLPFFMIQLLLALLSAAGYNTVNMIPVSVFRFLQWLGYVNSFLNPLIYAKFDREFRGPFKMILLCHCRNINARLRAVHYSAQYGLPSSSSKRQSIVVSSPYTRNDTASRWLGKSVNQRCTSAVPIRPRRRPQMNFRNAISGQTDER
compound,measurement,setting,value
C[C@@H]1CC[C@@]2(OC1)O[C@H]1[C@@H](O)[C@H]3[C@@H]4CC[C@H]5C[C@@H](O[C@@H]6O[C@H](CO)[C@H](O[C@@H]7O[C@H](CO)C(O)[C@H](O[C@@H]8OC[C@@H](O)[C@H](O)[C@H]8O)[C@H]7O[C@@H]7O[C@H](CO)[C@H](O)[C@H](O[C@@H]8O[C@H](CO)[C@@H](O)[C@H](O)[C@H]8O)[C@H]7O)[C@H](O)[C@H]6O)[C@H](O)C[C@]5(C)[C@H]4CC[C@]3(C)[C@H]1[C@@H]2C (some centres unmarked) [ST069321],(-) Sm.5HTR Forskolin response (% of DMSO),[1],0.15 % of DMSO
same,(+) Sm.5HTR 5-HT response (% of DMSO),Sm.5HTRL [2],0.1068 % of DMSO
O=C(C1CCCCC1)N1CC(=O)N2CCc3ccccc3[C@@H]2C1 [R-PZQ],type of activity at human 5-HT2B receptor,human 5-HT2B receptor,partial agonist
"CN1C[C@H](C(=O)N[C@]2(C)O[C@@]3(O)[C@@H]4CCCN4C(=O)[C@H](Cc4ccccc4)N3C2=O)C=C2c3cccc4[nH]cc(c34)C[C@H]21 [ergotamine, Ergotamine]",percentage of worms in the liver,[3],75.1 ± 16.9%
same,Emax,Sj.5HTR,114 ± 3%
same,EC50,[4],97.8 ± 31.6 nM
same,worm burden,"[5]; 60 mg/kg twice daily 42–49 days p.i., control 28 ± 8",9 ± 6 worm pairs per mouse
same,reduction of worm burden,"[5]; 60 mg/kg twice daily 42–49 days p.i., p<0.002",~ 65%
same,reduction of infection-promoted increase in spleen mass,"[5]; 60 mg/kg twice daily 42–49 days p.i., relative to vehicle treated controls",55.8 ± 14.0%
same,reduction in intestinal egg burden,"[5]; ergotamine 60 mg/kg twice daily or PZQ 50 mg/kg, 42–49 days p.i.",96.3 ± 1.2%
same,effect on hepatosplenomegaly,[5]; one week treatment starting at 42 days p.i.,prevented hepatosplenomegaly
same,effect on gene products associated with HSC activation,liver signaling pathways,down-regulated gene products associated with HSC activation
same,Emax,Sm.5HTRL [6],95 ± 4%
same,effect on immature infection,[7],did not resolve infections
same,effect on movement of juvenile worms,immature S. mansoni,stimulated movement of juvenile worms
same,morphology of eggs laid by treated worms,[8],often small and deformed
same,granuloma formation and fibrosis in liver sections,[9],decreased granuloma formation and fibrosis
same,hepatic microvesicular steatosis / microvascular damage,[9]; H and E staining,not observed
same,type of activity at schistosome 5-HTRs,Sm.5HTRL [2],full agonists
same,Emax,Sh.5HTR,96 ± 5%
